Experimental data reported in the supplement of paper PMC10627819.

How the values were obtained:
S. pneumoniae D39V [1] = test: fitness (endpoint OD595 vs no drug) (fraction); higher = more growth
In short: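 In 384-well plates at 37 °C, cultures began at OD595 0.01 in 30 µl, with 55 µl used for S. pneumoniae. OD595 readings every 30 min for 14 h were corrected by the first reading. Fitness divides the stationary-phase transition optical density by the robust mean of no-drug control wells. The result is capped at 1.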

B. subtilis 168 = test: Bliss interaction score (quartile over a dose matrix) (fitness difference); higher = more antagonism (negative = synergy)
In short: (§1)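 The Bliss score is observed minus expected fitness, where expected fitness is the product of the single-drug fitness values inferred from the combination data. Fitness is the OD595 at the onset of stationary phase over the plate's robust no-drug mean, capped at 1. Scores are summarised by quartiles over technical, biological and donor/recipient replicates.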

S. pneumoniae D39V [2] = test: as above
In short: as §1

S. aureus DSM 20231 = test: as above
In short: as §1

S. aureus Newman = test: as above
In short: as §1
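For Bliss interaction score (quartile over a dose matrix) in this document: first quartile when negative (synergy) and third quartile when positive (antagonism).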
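For fitness (endpoint OD595 vs no drug) in this document: OD595 on entry to stationary phase over no-drug wells; at most 1.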

CC1=C(C(=O)O)N2C(=O)[C@@H](NC(=O)[C@H](N)c3ccccc3)[C@H]2SC1 [Cephalexin] + Clc1ccc(COC(Cn2ccnc2)c2ccc(Cl)cc2Cl)c(Cl)c1 [Miconazole]
fitness, S. pneumoniae D39V [1], one replicate
Details	first compound 0.125 µg/mL	first compound 0.25 µg/mL	first compound 0.5 µg/mL
partner 1.25 µg/mL	0.987	0.878	0.858
partner 2.5 µg/mL	0.885	0.826	0.819
partner 5 µg/mL	0.89	0.867	0.893

fitness, S. pneumoniae D39V [1]
Details	first compound 1 µg/mL	first compound 2 µg/mL	first compound 4 µg/mL
partner 1.073 µg/mL	–	–	0.0455
partner 2.145 µg/mL	–	–	0.0466
partner 4.29 µg/mL	0.482	0.37	0.234

Details	Bliss interaction score
B. subtilis 168	0.0898
S. aureus DSM 20231	0.0471
S. aureus Newman	0.063
S. pneumoniae D39V [2]	-0.0715

Clc1ccc(COC(Cn2ccnc2)c2ccc(Cl)cc2Cl)c(Cl)c1 (centres undefined) [Miconazole] + CN[C@@H]1[C@H](O[C@H]2[C@H](O[C@H]3[C@H](O)[C@@H](O)[C@H](N=C(N)N)[C@@H](O)[C@@H]3N=C(N)N)O[C@@H](C)[C@]2(O)C=O)O[C@@H](CO)[C@H](O)[C@H]1O [Streptomycin]
fitness, S. pneumoniae D39V [1]
Details	first compound 1.073 µg/mL	first compound 1.25 µg/mL	first compound 2.145 µg/mL	first compound 2.5 µg/mL	first compound 4.29 µg/mL	first compound 5 µg/mL
partner 2 µg/mL	0.978	–	0.977	–	0.936	–
partner 4 µg/mL	0.988	0.909	0.988	0.904	0.946	0.912
partner 8 µg/mL	≥ 1	0.86	≥ 1	0.832	0.932	0.86

fitness, S. pneumoniae D39V [1], one replicate
Details	first compound 1.25 µg/mL	first compound 2.5 µg/mL	first compound 5 µg/mL
partner 2 µg/mL	0.922	0.964	0.977
partner 16 µg/mL	0.712	0.632	0.679

Details	Bliss interaction score
B. subtilis 168	0.0605
S. aureus DSM 20231	0.0476
S. aureus Newman	0.0487
S. pneumoniae D39V [2]	0.0827

Clc1ccc(COC(Cn2ccnc2)c2ccc(Cl)cc2Cl)c(Cl)c1 (centres undefined) [Miconazole] + CN(C)c1cc(NC(=O)CNC(C)(C)C)c(O)c2c1C[C@H]1C[C@H]3[C@H](N(C)C)C(O)=C(C(N)=O)C(=O)[C@@]3(O)C(O)=C1C2=O [Tigecycline]
fitness, S. pneumoniae D39V [1]
Details	first compound 1.073 µg/mL	first compound 1.25 µg/mL	first compound 2.145 µg/mL	first compound 2.5 µg/mL	first compound 4.29 µg/mL	first compound 5 µg/mL
partner 0.65 µg/mL	0.992	0.974	0.998	0.982	≥ 1	≥ 1
partner 1.3 µg/mL	≥ 1	0.997	0.992	0.991	≥ 1	≥ 1
partner 2.6 µg/mL	0.999	0.982	≥ 1	0.993	0.998	0.927

Details	Bliss interaction score
B. subtilis 168	0.0621
S. aureus DSM 20231	0.0455
S. aureus Newman	0.0412
S. pneumoniae D39V [2]	0.0957

CNC(C)C1CCC(N)C(OC2C(N)CC(N)C(OC3OCC(C)(O)C(NC)C3O)C2O)O1 (centres undefined) [Gentamicin] + Clc1ccc(COC(Cn2ccnc2)c2ccc(Cl)cc2Cl)c(Cl)c1 [Miconazole]
fitness, S. pneumoniae D39V [1], main component drawn
Details	partner 1.073 µg/mL	partner 1.25 µg/mL	partner 2.145 µg/mL	partner 2.5 µg/mL	partner 4.29 µg/mL	partner 5 µg/mL
first compound 2 µg/mL	≥ 1	0.915	≥ 1	0.901	0.912	0.905
first compound 4 µg/mL	≥ 1	0.884	0.998	0.893	0.987	0.911
first compound 8 µg/mL	0.996	0.838	≥ 1	0.868	0.913	0.875

main component drawn
Details	Bliss interaction score
B. subtilis 168	-0.151
S. aureus DSM 20231	0.102
S. aureus Newman	0.0417
S. pneumoniae D39V [2]	0.0753

Clc1ccc(COC(Cn2ccnc2)c2ccc(Cl)cc2Cl)c(Cl)c1 (centres undefined) [Miconazole] + COc1c(N2C[C@@H]3CCCN[C@@H]3C2)c(F)cc2c(=O)c(C(=O)O)cn(C3CC3)c12 [Moxifloxacin]
fitness, S. pneumoniae D39V [1]
Details	first compound 1.073 µg/mL	first compound 1.25 µg/mL	first compound 2.145 µg/mL	first compound 2.5 µg/mL	first compound 4.29 µg/mL	first compound 5 µg/mL
partner 0.0037 µg/mL	0.959	–	0.951	–	0.802	–
partner 0.005 µg/mL	–	0.935	–	0.926	–	0.953
partner 0.0075 µg/mL	0.986	–	0.942	–	0.796	–
partner 0.01 µg/mL	–	0.925	–	0.936	–	0.961
partner 0.015 µg/mL	0.957	–	0.942	–	0.682	–
partner 0.02 µg/mL	–	0.825	–	0.828	–	0.911

Details	Bliss interaction score
B. subtilis 168	-0.0223
S. aureus DSM 20231	-0.059
S. aureus Newman	0.0536
S. pneumoniae D39V [2]	0.0598

C[n+]1ccc(-c2cc[n+](C)cc2)cc1 [Paraquat] + CO[C@H]1/C=C/O[C@@]2(C)Oc3c(C)c(O)c4c(O)c(c(/C=N/N5CCN(C)CC5)c(O)c4c3C2=O)NC(=O)/C(C)=C\C=C\[C@H](C)[C@H](O)[C@@H](C)[C@@H](O)[C@@H](C)[C@H](OC(C)=O)[C@@H]1C [Rifampicin]
S. pneumoniae D39V [1], partner 0.025 µg/mL, one replicate
Details	fitness
first compound 1.5 µg/mL	0.869
first compound 3 µg/mL	0.833
first compound 6 µg/mL	0.842

fitness, S. pneumoniae D39V [1]
Details	first compound 1.5 µg/mL	first compound 3 µg/mL	first compound 6 µg/mL
partner 0.05 µg/mL	–	0.882	0.897
partner 0.2 µg/mL	0.0862	0.102	0.0798

Details	Bliss interaction score
B. subtilis 168	0.0618
S. aureus DSM 20231	0.0593
S. aureus Newman	0.0217
S. pneumoniae D39V [2]	-0.0393

Clc1ccc(COC(Cn2ccnc2)c2ccc(Cl)cc2Cl)c(Cl)c1 (centres undefined) [Miconazole] + CN(N=O)C(=O)N[C@@H](C=O)[C@@H](O)[C@H](O)[C@H](O)CO [Streptozotocin]
fitness, S. pneumoniae D39V [1]
Details	first compound 1.073 µg/mL	first compound 2.145 µg/mL	first compound 4.29 µg/mL
partner 1.2 µg/mL	0.997	0.982	0.939
partner 2.4 µg/mL	0.989	0.988	0.938
partner 4.8 µg/mL	≥ 1	0.977	0.923

fitness, S. pneumoniae D39V [1], one replicate
Details	first compound 1.25 µg/mL	first compound 2.5 µg/mL	first compound 5 µg/mL
partner 1.2 µg/mL	0.924	0.903	0.942
partner 2.4 µg/mL	0.971	0.94	≥ 1
partner 4.8 µg/mL	0.788	0.813	0.841

Details	Bliss interaction score
B. subtilis 168	0.143
S. aureus DSM 20231	0.039
S. aureus Newman	0.0421
S. pneumoniae D39V [2]	0.0621

Clc1ccc(COC(Cn2ccnc2)c2ccc(Cl)cc2Cl)c(Cl)c1 (centres undefined) [Miconazole] + CN[C@H](CC(C)C)C(=O)N[C@H]1C(=O)N[C@@H](CC(N)=O)C(=O)N[C@H]2C(=O)N[C@H]3C(=O)N[C@H](C(=O)N[C@H](C(=O)O)c4cc(O)cc(O)c4-c4cc3ccc4O)[C@H](O)c3ccc(c(Cl)c3)Oc3cc2cc(c3O[C@@H]2O[C@H](CO)[C@@H](O)[C@H](O)[C@H]2O[C@H]2C[C@](C)(N)[C@H](O)[C@H](C)O2)Oc2ccc(cc2Cl)[C@H]1O [Vancomycin]
fitness, S. pneumoniae D39V [1]
Details	first compound 1.073 µg/mL	first compound 1.25 µg/mL	first compound 2.145 µg/mL	first compound 2.5 µg/mL	first compound 4.29 µg/mL	first compound 5 µg/mL
partner 0.03125 µg/mL	–	0.993	–	≥ 1	–	0.966
partner 0.0625 µg/mL	–	0.909	–	0.923	–	0.913
partner 0.125 µg/mL	0.884	0.759	0.851	0.81	0.84	0.731
partner 0.5 µg/mL	–	–	–	–	0.415	–

Details	Bliss interaction score
B. subtilis 168	0.0343
S. aureus DSM 20231	0.0309
S. aureus Newman	0.0654
S. pneumoniae D39V [2]	0.154

Clc1ccc(COC(Cn2ccnc2)c2ccc(Cl)cc2Cl)c(Cl)c1 (centres undefined) [Miconazole] + CN[C@@H]1[C@H](O)[C@H](NC)[C@H]2O[C@@]3(O)C(=O)C[C@@H](C)O[C@H]3O[C@@H]2[C@H]1O [Spectinomycin]
fitness, S. pneumoniae D39V [1]
Details	first compound 1.073 µg/mL	first compound 2.145 µg/mL	first compound 4.29 µg/mL
partner 4 µg/mL	≥ 1	≥ 1	0.88
partner 8 µg/mL	0.966	0.995	0.961
partner 16 µg/mL	0.942	0.963	0.893

fitness, S. pneumoniae D39V [1], one replicate
Details	first compound 1.25 µg/mL	first compound 2.5 µg/mL	first compound 5 µg/mL
partner 4 µg/mL	0.963	0.95	0.985
partner 8 µg/mL	0.891	0.879	0.906

Details	Bliss interaction score
B. subtilis 168	0.0664
S. aureus DSM 20231	-0.0228
S. aureus Newman	0.0708
S. pneumoniae D39V [2]	0.09
